Data published in patent US20240059698A1 (Accutar Biotechnology Inc., priority 2022, published 2024).

How the values were obtained:
Assay type in all cases: cell-based
HCC827 cells = assay: Cell growth inhibition (CellTiter-Glo), HCC827; conditions: Homo sapiens, 72 h, 3 days
Experimental: (§1) 2. Cell Growth Inhibition for HCC827, HCC827-SVD, HCC827-ASV, HCC827-YVMA, and A431.
(§2) HCC827(ATCC), HCC827-SVD, HCC827-ASV, and HCC827-YVMA cells were seeded in 96-well plates at 5000 cells/well in 90 μL of RPMI growth medium containing 10% FBS and 1% Penicillin Streptomycin. A431 (ATCC) cells were seeded in 96-well plates at 5000 cells/well in 90 μL of DMEM growth medium containing 10% FBS and 1% Penicillin Streptomycin. Cells were incubated at 37° C. overnight and then administered with 10 μL 10× test compounds prepared in the growth medium at various concentrations. After administration of the compounds, cells were incubated at 37° C. for 3 days. Before the CellTiter-Glo assay, the plates were equilibrated at room temperature for approximately 30 minutes. 100 ul of CellTiter-Glo reagent (Promega) was added to each well. The plates were then incubated at room temperature for 10 minutes and luminescence was recorded by the EnSight® multimode plate reader (PerkinElmer). Table 7 listed selected compounds in cellular growth assay.

[1] = tested on: HCC827-SVD cells (human EGFR exon 20 insertion mutant D770_N771insSVD); assay: Cell growth inhibition (CellTiter-Glo), HCC827-SVD; conditions: 72 h, 3 days
In short: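 HCC827 cells with endogenous EGFR knocked out and lentivirally expressing the insertion mutant (single clone) were seeded at 5000 cells/well in RPMI with 10% FBS. After overnight, compounds added; 3 days at 37 °C, then CellTiter-Glo luminescence.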

[2] = tested on: HCC827-YVMA cells (human ERBB2 exon20 insertion mutant A775_G776ins YVMA); assay: Cell growth inhibition (CellTiter-Glo), HCC827-YVMA; conditions: 72 h, HCC827-YVMA cells, 3 days, CellTiter-Glo, read-out: Cell growth inhibition, GI50 (nM) HCC827-YVMA
In short: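 HCC827 cells transduced with lentiviral codon-optimized mutant (ERBB2 A775_G776insYVMA or EGFR V769_D770insASV), endogenous EGFR knocked out by CRISPR, single clone selected. Cells seeded overnight in RPMI/10% FBS, then exposed to serially diluted compounds at 37 °C for 3 days; viability read by CellTiter-Glo luminescence.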

A431 cells = assay: Cell growth inhibition (CellTiter-Glo), A431; conditions: Homo sapiens, A-431, 72 h, 3 days
Experimental: as §1, §2

SMILES | GI50 (HCC827 cells) [nM] | GI50 [1] [nM] | GI50 [2] [nM] | GI50 (A431 cells) [nM]
C=CC(=O)N1CCC(c2c[nH]c3ncnc(Nc4ccc(Oc5ccc(-c6cc(C)[nH]c(=O)c6)cc5)c(Cl)c4F)c23)CC1 [Compound 138, 4-(4-(4-((5-(1-acryloylpiperidin-4-yl)-7H-pyrrolo[2,3-d]pyrimidin-4-yl)amino)-2-chloro-3-fluorophenoxy)phenyl)-6-methylpyridin-2(1H)-one] | > 1000 | 50 to 200 | 200 to 1000 | > 1000
C=CC(=O)N1CCC(c2c[nH]c3ncnc(Nc4ccc(Oc5ccnc(N6C[C@H](OC)[C@H](OC)C6)c5)cc4F)c23)CC1 [Compound 139, 1-(4-(4-((4-((2-((3R,4S)-3,4-dimethoxypyrrolidin-1-yl)pyridin-4-yl)oxy)-2-fluorophenyl)amino)-7H-pyrrolo[2,3-d]pyrimidin-5-yl)piperidin-1-yl)prop-2-en-1-one] | > 1000 | 50 to 200 | > 1000 | > 1000
C=CC(=O)N1CCC(c2c[nH]c3ncnc(Nc4ccc(Oc5ccnc(N6CCC(C(F)(F)F)C6)c5)cc4F)c23)CC1 (centres unmarked) [Compound 140, 1-(4-(4-((2-fluoro-4-((2-(3-(trifluoromethyl)pyrrolidin-1-yl)pyridin-4-yl)oxy)phenyl)amino)-7H-pyrrolo[2,3-d]pyrimidin-5-yl)piperidin-1-yl)prop-2-en-1-one] | 200 to 1000 | 50 to 200 | 50 to 200 | > 1000
C=CC(=O)N1CCC(c2c[nH]c3ncnc(Nc4ccc(Cl)c(Cl)c4F)c23)CC1 [Compound 143, 1-(4-(4-((3,4-dichloro-2-fluorophenyl)amino)-7H-pyrrolo[2,3-d]pyrimidin-5-yl)piperidin-1-yl)prop-2-en-1-one] | < 50 | < 50 | < 50 | > 1000
C=CC(=O)N1CCC(c2c[nH]c3ncnc(Nc4ccc(Oc5ccnc(N6CCC(F)(F)C6)c5)cc4F)c23)CC1 [Compound 145] | > 1000 | 200 to 1000 | 200 to 1000 | > 1000
C=CC(=O)N1CCC(c2c[nH]c3ncnc(Nc4ccc(Oc5ccnc(NC6CCOCC6)c5)cc4F)c23)CC1 [Compound 146, 1-(4-(4-((2-fluoro-4-((2-((tetrahydro-2H-pyran-4-yl)amino)pyridin-4-yl)oxy)phenyl)amino)-7H-pyrrolo[2,3-d]pyrimidin-5-yl)piperidin-1-yl)prop-2-en-1-one] | > 1000 | 200 to 1000 | 200 to 1000 | > 1000
C=CC(=O)N1CCC(c2c[nH]c3ncnc(Nc4ccc(Oc5ccnc(N6CCC[C@@H](OC)C6)c5)cc4F)c23)CC1 [Compound 147, (R)-1-(4-(4-((2-fluoro-4-((2-(3-methoxypiperidin-1-yl)pyridin-4-yl)oxy)phenyl)amino)-7H-pyrrolo[2,3-d]pyrimidin-5-yl)piperidin-1-yl)prop-2-en-1-one] | > 1000 | 50 to 200 | 50 to 200 | > 1000
C=CC(=O)N1CCC(c2c[nH]c3ncnc(Nc4ccc(Oc5ccnc(N6CC7C(C6)C7(F)F)c5)cc4F)c23)CC1 (centres unmarked) [Compound 148, 1-(4-(4-((4-((2-(6,6-difluoro-3-azabicyclo[3.1.0]hexan-3-yl)pyridin-4-yl)oxy)-2-fluorophenyl)amino)-7H-pyrrolo[2,3-d]pyrimidin-5-yl)piperidin-1-yl)prop-2-en-1-one] | > 1000 | 50 to 200 | 200 to 1000 | > 1000
C=CC(=O)N1CCC(c2c[nH]c3ncnc(Nc4ccc(Oc5nc(-c6cnc(OC)nc6)cs5)cc4F)c23)CC1 [Compound 149, 1-(4-(4-((2-fluoro-4-((4-(2-methoxypyrimidin-5-yl)thiazol-2-yl)oxy)phenyl)amino)-7H-pyrrolo[2,3-d]pyrimidin-5-yl)piperidin-1-yl)prop-2-en-1-one] | > 1000 | 50 to 200 | 50 to 200 | > 1000
C=CC(=O)N1CCC(c2c[nH]c3ncnc(Nc4ccc(Oc5ccn(-c6cnc(C)c(F)c6)n5)cc4F)c23)CC1 [Compound 150, 1-(4-(4-((2-fluoro-4-((1-(5-fluoro-6-methylpyridin-3-yl)-1H-pyrazol-3-yl)oxy)phenyl)amino)-7H-pyrrolo[2,3-d]pyrimidin-5-yl)piperidin-1-yl)prop-2-en-1-one] | 200 to 1000 | 50 to 200 | 50 to 200 | > 1000

Second part, the molecule after the results:

GI50 (HCC827 cells) [nM] | GI50 [1] [nM] | GI50 [2] [nM] | GI50 (A431 cells) [nM] | SMILES
< 50 | < 50 | < 50 | < 50 | C=CC(=O)N1CCC(c2c[nH]c3ncnc(Nc4ccc(OCc5cc(C(F)(F)F)ccn5)c(Cl)c4)c23)CC1 [Compound 113, 1-(4-(4-((3-chloro-4-((4-(trifluoromethyl)pyridin-2-yl)methoxy)phenyl)amino)-7H-pyrrolo[2,3-d]pyrimidin-5-yl)piperidin-1-yl)prop-2-en-1-one]
< 50 | < 50 | < 50 | 50 to 200 | C=CC(=O)N1CCC(c2c[nH]c3ncnc(Nc4ccc(OCc5cnccn5)c(Cl)c4)c23)CC1 [Compound 116, 1-[4-[4-[3-chloro-4-(pyrazin-2-ylmethoxy)anilino]-7H-pyrrolo[2,3-d]pyrimidin-5-yl]-1-piperidyl]prop-2-en-1-one]
< 50 | < 50 | < 50 | 50 to 200 | C=CC(=O)N1CCC(c2c[nH]c3ncnc(Nc4ccc(OCc5cscn5)c(Cl)c4)c23)CC1 [Compound 119, 1-[4-[4-[3-chloro-4-(thiazol-4-ylmethoxy)anilino]-7H-pyrrolo[2,3-d]pyrimidin-5-yl]-1-piperidyl]prop-2-en-1-one]
50 to 200 | < 50 | < 50 | > 1000 | C=CC(=O)N1CC(c2c[nH]c3ncnc(Nc4ccc(OCc5ccccn5)c(Cl)c4)c23)C1 [Compound 137, 1-(3-(4-((3-chloro-4-(pyridin-2-ylmethoxy)phenyl)amino)-7H-pyrrolo[2,3-d]pyrimidin-5-yl)azetidin-1-yl)prop-2-en-1-one]
> 1000 | < 50 | < 50 | > 1000 | C=CC(=O)N1CCC(c2c[nH]c3ncnc(Nc4ccc(Oc5ccnc(N6C[C@@H](C)O[C@@H](C)C6)c5)c(Cl)c4F)c23)CC1 [Compound 142, 1-(4-(4-((3-chloro-4-((2-((2S,6R)-2,6-dimethylmorpholino)pyridin-4-yl)oxy)-2-fluorophenyl)amino)-7H-pyrrolo[2,3-d]pyrimidin-5-yl)piperidin-1-yl)prop-2-en-1-one]
< 50 | < 50 | < 50 | < 50 | C=CC(=O)N1CCC(c2c[nH]c3ncnc(Nc4ccc(OCc5nccs5)c(Cl)c4)c23)CC1 [Compound 153, 1-(4-(4-((3-chloro-4-(thiazol-2-ylmethoxy)phenyl)amino)-7H-pyrrolo[2,3-d]pyrimidin-5-yl)piperidin-1-yl)prop-2-en-1-one]
< 50 | < 50 | < 50 | > 1000 | C=CC(=O)N1CCN(c2n[nH]c3ncnc(Nc4ccc(OCc5ccccn5)c(Cl)c4)c23)CC1 [Compound 163, 1-(4-(4-((3-chloro-4-(pyridin-2-ylmethoxy)phenyl)amino)-1H-pyrazolo[3,4-d]pyrimidin-3-yl)piperazin-1-yl)prop-2-en-1-one]
